Measurements as given in patent publication US10287301B2 (Achillion Pharmaceuticals, Inc., priority 2015, dated 2019).

These compounds were tested against Human Factor D (Homo sapiens (Human), UniProt P00746) (assay: Human Factor D Assay). Settings: Human Factor D assay of Example 8; Table 2; read-out: IC50.
Format: biochemical
Procedure, shortened: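 Factor D (from human serum) 80 nM final + cpd, 5 min RT, 50 mM Tris/1M NaCl pH 7.5; add Z-L-Lys-SBzl 100 μM and DTNB 100 μM final. IC50 by nonlinear fit of rates vs [cpd].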

Chain of Human Factor D (P00746 26-253): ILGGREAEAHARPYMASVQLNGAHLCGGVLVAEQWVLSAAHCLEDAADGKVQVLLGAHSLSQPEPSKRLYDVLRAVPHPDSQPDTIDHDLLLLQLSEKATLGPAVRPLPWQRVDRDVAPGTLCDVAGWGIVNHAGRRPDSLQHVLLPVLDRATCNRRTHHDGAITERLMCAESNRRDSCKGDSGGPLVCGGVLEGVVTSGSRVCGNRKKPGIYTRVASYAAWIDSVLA

Q: With `COCCOCCNC(=O)c1ncc(-c2ccc3c(c2)c(C(C)=O)cn3CC(=O)N2C[C@H](F)C[C@H]2C(=O)Nc2cccc(-c3ccccc3Cl)c2F)cn1` [Compound 212, 5-(3-acetyl-1-(2-((2S,4R)-2-(2′-chloro-2-fluorobiphenyl-3-ylcarbamoyl)-4-fluoropyrrolidin-1-yl)-2-oxoethyl)-1H-indol-5-yl)-N-(2-(2-methoxyethoxy)ethyl)pyrimidine-2-carboxamide] as the compound, how does the IC50 read?
A: Its IC50 is < 1000 nM.

Q: With `CC(=O)c1cn(CC(=O)N2C[C@H](F)C[C@H]2C(=O)Nc2cccc(Br)n2)c2ccc(-c3cnc(C(N)=O)nc3)cc12` [Compound 213, 5-(3-acetyl-1-(2-((2S,4R)-2-(6-bromopyridin-2-ylcarbamoyl)-4-fluoropyrrolidin-1-yl)-2-oxoethyl)-1H-indol-5-yl)pyrimidine-2-carboxamide] as the compound, how does the IC50 read?
A: The IC50 was < 1000 nM.

Q: With `CC(=O)c1nn(CC(=O)N2C[C@H](F)C[C@H]2C(=O)Nc2cccc(-c3ccc4[nH]cnc4c3Cl)c2F)c2ccc(-c3cnc(C)nc3)cc12` [Compound 214, (2S,4R)-1-(2-(3-acetyl-5-(2-methylpyrimidin-5-yl)-1H-indazol-1-yl)acetyl)-N-(3-(4-chloro-1H-benzo[d]imidazol-5-yl)-2-fluorophenyl)-4-fluoropyrrolidine-2-carboxamide] as the compound, how does the IC50 read?
A: Its IC50 is < 1000 nM.

Q: For `CC(=O)c1cn(CC(=O)N2C[C@H](F)C[C@H]2C(=O)Nc2cccc(-c3ccccc3Cl)c2F)c2ccc(-c3cnc(N)nc3)cc12` [Compound 215, (2S,4R)-1-(2-(3-acetyl-5-(2-aminopyrimidin-5-yl)-1H-indol-1-yl)acetyl)-N-(2′-chloro-2-fluorobiphenyl-3-yl)-4-fluoropyrrolidine-2-carboxamide], which IC50 is on record?
A: The IC50 was < 1000 nM.

Q: With `CC(=O)c1cn(CC(=O)N2C[C@H](F)C[C@H]2C(=O)Nc2cccc(Br)n2)c2ccc(-c3cnc(C4CC4)nc3)cc12` [Compound 216, (2S,4R)-1-(2-(3-acetyl-5-(2-cyclopropylpyrimidin-5-yl)-1H-indol-1-yl)acetyl)-N-(6-bromopyridin-2-yl)-4-fluoropyrrolidine-2-carboxamide] as the compound, how does the IC50 read?
A: The IC50 was < 1000 nM.

Q: With `CC(=O)c1ncc(-c2ccc3c(c2)c(C(C)=O)cn3CC(=O)N2C[C@H](F)C[C@H]2C(=O)Nc2cccc(Br)n2)cn1` [Compound 218, (2S,4R)-1-(2-(3-acetyl-5-(2-acetylpyrimidin-5-yl)-1H-indol-1-yl)acetyl)-N-(6-bromopyridin-2-yl)-4-fluoropyrrolidine-2-carboxamide] as the compound, how does the IC50 read?
A: The IC50 was < 1000 nM.

Q: Which IC50 does the source give for `CC(=O)c1cn(CC(=O)N2C[C@H](F)C[C@H]2C(=O)Nc2cccc(Br)n2)c2ccc(-c3cnc(N)nc3)cc12` [Compound 219, (2S,4R)-1-(2-(3-acetyl-5-(2-aminopyrimidin-5-yl)-1H-indol-1-yl)acetyl)-N-(6-bromopyridin-2-yl)-4-fluoropyrrolidine-2-carboxamide] here?
A: Its IC50 is < 1000 nM.

Q: Which IC50 does the source give for `CC(=O)c1nn(CC(=O)N2C[C@H](F)C[C@H]2C(=O)Nc2cccc(OC(F)(F)F)c2F)c2ccc(-c3cnc(C)nc3)cc12` [Compound 220, (2S,4R)-1-(2-(3-acetyl-5-(2-methylpyrimidin-5-yl)-1H-indazol-1-yl)acetyl)-4-fluoro-N-(2-fluoro-3-(trifluoromethoxy)phenyl)pyrrolidine-2-carboxamide] here?
A: Its IC50 is < 1000 nM.

Q: With `CC(=O)c1cn(CC(=O)N2N=CCC2C(=O)Nc2cccc(-c3ccccc3Cl)c2F)c2ccc(-c3cnc(C)nc3)cc12` (stereo not shown) [Compound 221, 1-(2-(3-acetyl-5-(2-methylpyrimidin-5-yl)-1H-indol-1-yl)acetyl)-N-(2′-chloro-2-fluorobiphenyl-3-yl)-4,5-dihydro-1H-pyrazole-5-carboxamide] as the compound, how does the IC50 read?
A: The IC50 was < 1000 nM.

Q: With `CC(=O)c1cn(CC(=O)N2C[C@H](F)C[C@H]2C(=O)Nc2cccc(Br)n2)c2ccc(-c3cnc4nccn4c3)cc12` [Compound 222, (2S,4R)-1-(2-(3-acetyl-5-(imidazo[1,2-a]pyrimidin-6-yl)-1H-indol-1-yl)acetyl)-N-(6-bromopyridin-2-yl)-4-fluoropyrrolidine-2-carboxamide] as the compound, how does the IC50 read?
A: The IC50 was < 1000 nM.

Q: Which IC50 does the source give for `CC(=O)c1cn(CC(=O)N2C[C@H](F)C[C@H]2C(=O)Nc2cccc(Cl)n2)c2ccc(-c3cnc4ccnn4c3)cc12` [Compound 223, (2S,4R)-1-(2-(3-acetyl-5-(pyrazolo[1,5-a]pyrimidin-6-yl)-1H-indol-1-yl)acetyl)-N-(6-chloropyridin-2-yl)-4-fluoropyrrolidine-2-carboxamide] here?
A: Its IC50 is < 1000 nM.

Q: With `CC(=O)c1cn(CC(=O)N2C[C@H](F)C[C@H]2C(=O)Nc2cccc(OC(F)(F)F)c2F)c2ccc(-c3cnc4ccnn4c3)cc12` [Compound 224, (2S,4R)-1-(2-(3-acetyl-5-(pyrazolo[1,5-a]pyrimidin-6-yl)-1H-indol-1-yl)acetyl)-4-fluoro-N-(2-fluoro-3-(trifluoromethoxy)phenyl)pyrrolidine-2-carboxamide] as the compound, how does the IC50 read?
A: Its IC50 is < 1000 nM.

Q: For `CC(=O)c1nn(CC(=O)N2C[C@H](F)C[C@H]2C(=O)Nc2cccc(Cl)n2)c2ccc(-c3cnc(C)nc3)cc12` [Compound 225, (2S,4R)-1-(2-(3-acetyl-5-(2-methylpyrimidin-5-yl)-1H-indazol-1-yl)acetyl)-N-(6-chloropyridin-2-yl)-4-fluoropyrrolidine-2-carboxamide], which IC50 is on record?
A: The IC50 was < 1000 nM.

Q: For `CC(=O)c1nn(CC(=O)N2C[C@H](F)C[C@H]2C(=O)NCc2cccc(Cl)c2F)c2ccc(-c3cnc(C)nc3)cc12` [Compound 226, (2S,4R)-1-(2-(3-acetyl-5-(2-methylpyrimidin-5-yl)-1H-indazol-1-yl)acetyl)-N-(3-chloro-2-fluorobenzyl)-4-fluoropyrrolidine-2-carboxamide], which IC50 is on record?
A: Its IC50 is < 1000 nM.

Q: How did the IC50 turn out when `CC(=O)c1cn(CC(=O)N2NCCC2C(=O)Nc2cccc(-c3ccccc3Cl)c2F)c2ccc(-c3cnc(C)nc3)cc12` (stereo not shown) [Compound 227, 2-(2-(3-acetyl-5-(2-methylpyrimidin-5-yl)-1H-indol-1-yl)acetyl)-N-(2′-chloro-2-fluorobiphenyl-3-yl)pyrazolidine-3-carboxamide] was run?
A: The IC50 was < 1000 nM.

Q: With `CC(=O)c1nn(CC(=O)N2C[C@H](F)C[C@H]2C(=O)Nc2nccc(-c3sccc3Cl)n2)c2ccc(-c3cnc(C)nc3)cc12` [Compound 228, (2S,4R)-1-(2-(3-acetyl-5-(2-methylpyrimidin-5-yl)-1H-indazol-1-yl)acetyl)-N-(4-(3-chlorothiophen-2-yl)pyrimidin-2-yl)-4-fluoropyrrolidine-2-carboxamide] as the compound, how does the IC50 read?
A: Its IC50 is < 1000 nM.

Q: Which IC50 does the source give for `CC(=O)c1nn(CC(=O)N2C[C@H](F)C[C@H]2C(=O)Nc2cc(Cl)sc2C)c2ccc(-c3cnc(C)nc3)cc12` [Compound 229, (2S,4R)-1-(2-(3-acetyl-5-(2-methylpyrimidin-5-yl)-1H-indazol-1-yl)acetyl)-N-(5-chloro-2-methylthiophen-3-yl)-4-fluoropyrrolidine-2-carboxamide] here?
A: The IC50 was < 1000 nM.

Q: With `CC(=O)c1nn(CC(=O)N2CCC[C@H]2C(=O)Nc2cccc(Br)n2)c2ccc(-c3cnc(C)nc3)cc12` [Compound 230, (S)-1-(2-(3-Acetyl-5-(2-methylpyrimidin-5-yl)-1H-indazol-1-yl)acetyl)-N-(6-bromopyridin-2-yl)pyrrolidine-2-carboxamide] as the compound, how does the IC50 read?
A: The IC50 was < 1000 nM.

Q: Which IC50 does the source give for `CC(=O)c1nn(CC(=O)N2C[C@H](O)C[C@H]2C(=O)Nc2cccc(Br)n2)c2ccc(-c3cnc(C)nc3)cc12` [Compound 231, (2S,4R)-1-(2-(3-Acetyl-5-(2-methylpyrimidin-5-yl)-1H-indazol-1-yl)acetyl)-N-(6-bromopyridin-2-yl)-4-hydroxypyrrolidine-2-carboxamide] here?
A: Its IC50 is < 1000 nM.

Q: Which IC50 does the source give for `CC(=O)c1nn(CC(=O)N2C[C@H](F)C[C@H]2C(=O)NC2CCN(C(=O)c3cc(Cl)c[nH]3)CC2)c2ccc(-c3cnc(C)nc3)cc12` [Compound 232, (2S,4R)-1-(2-(3-acetyl-5-(2-methylpyrimidin-5-yl)-1H-indazol-1-yl)acetyl)-N-(1-(4-chloro-1H-pyrrole-2-carbonyl)piperidin-4-yl)-4-fluoropyrrolidine-2-carboxamide] here?
A: Its IC50 is < 1000 nM.

Q: `CC(=O)c1nn(CC(=O)N2C[C@H](F)C[C@H]2C(=O)Nc2cccc(Br)n2)c2ccc(-c3cnc4ccnn4c3)cc12` [Compound 234, (2S,4R)-1-(2-(3-acetyl-5-(pyrazolo[1,5-a]pyrimidin-6-yl)-1H-indazol-1-yl)acetyl)-N-(6-bromopyridin-2-yl)-4-fluoropyrrolidine-2-carboxamide] was tested. Which IC50 did it give?
A: The IC50 was < 1000 nM.

Q: With `CC(=O)c1nn(CC(=O)N2C[C@H](F)C[C@H]2C(=O)Nc2cccc(OC(F)(F)F)c2F)c2ccc(-c3cnc4ccnn4c3)cc12` [Compound 235, (2S,4R)-1-(2-(3-acetyl-5-(pyrazolo[1,5-a]pyrimidin-6-yl)-1H-indazol-1-yl)acetyl)-4-fluoro-N-(2-fluoro-3-(trifluoromethoxy)phenyl)pyrrolidine-2-carboxamide] as the compound, how does the IC50 read?
A: The IC50 was < 1000 nM.

Q: Which IC50 does the source give for `CC(=O)c1nn(CC(=O)N2C[C@H](F)C[C@H]2C(=O)NCc2cccc(Cl)c2F)c2ccc(-c3cnc4ccnn4c3)cc12` [Compound 236, (2S,4R)-1-(2-(3-acetyl-5-(pyrazolo[1,5-a]pyrimidin-6-yl)-1H-indazol-1-yl)acetyl)-N-(3-chloro-2-fluorobenzyl)-4-fluoropyrrolidine-2-carboxamide] here?
A: The IC50 was < 1000 nM.

Q: With `CC(=O)c1nn(CC(=O)N2C[C@H](F)C[C@H]2C(=O)Nc2cccc(-c3ccccc3Cl)c2F)c2ccc(-c3cnc4ccnn4c3)cc12` [Compound 237, (2S,4R)-1-(2-(3-acetyl-5-(pyrazolo[1,5-a]pyrimidin-6-yl)-1H-indazol-1-yl)acetyl)-N-(2′-chloro-2-fluorobiphenyl-3-yl)-4-fluoropyrrolidine-2-carboxamide] as the compound, how does the IC50 read?
A: Its IC50 is < 1000 nM.

Q: `CC(=O)c1nn(CC(=O)N2[C@@H]3C[C@@H]3C[C@H]2C(=O)Nc2cccc(Br)n2)c2ccc(-c3cnc4ccnn4c3)cc12` [Compound 238, (1R,3S,5R)-2-(2-(3-acetyl-5-(pyrazolo[1,5-a]pyrimidin-6-yl)-1H-indazol-1-yl)acetyl)-N-(6-bromopyridin-2-yl)-2-azabicyclo[3.1.0] hexane-3-carboxamide] was tested. Which IC50 did it give?
A: The IC50 was < 1000 nM.
